{"source": "patent US8952024B2", "about": "“Herbicidal pyrimidone derivatives” (E I du Pont de Nemours and Company, priority 2009, dated 2015)", "type_in_all_cases": "in vivo", "key": {"[1]": {"test_system": "barnyardgrass (Echinochloa crus-galli)", "assay": "Test B flooded paddy test", "outline": "(§1)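 Visual scores run from 0 (no effect) to 100 (complete control), assigned by comparison with controls 13 to 15 days after treatment. Test compounds went straight into water standing 3 cm above the soil, around plants at the 2-leaf stage kept in a greenhouse.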"}, "[2]": {"test_system": "umbrella sedge (Cyperus difformis)", "assay": "Test B flooded paddy test", "outline": "as §1"}, "[3]": {"test_system": "ducksalad (Heteranthera limosa)", "assay": "Test B flooded paddy test", "outline": "as §1"}, "rice (Oryza sativa)": {"test_system": "rice (Oryza sativa)", "assay": "Test B flooded paddy test", "outline": "as §1"}, "[4]": {"test_system": "cocklebur (Xanthium strumarium)", "assay": "Test B pre-/postemergence plant response", "settings": "Preemergence", "from_the_text": "(§2) Seeds of plant species selected from blackgrass (Alopecurus myosuroides), downy bromegrass (Bromus tectorum), green foxtail (Setaria viridis), Italian ryegrass (Lolium multiflorum), wheat (Triticum aestivum), wild oat (Avena fatua), deadnettle (henbit deadnettle, Lamium amplexicaule), galium (catchweed bedstraw, Galium aparine), bermudagrass (Cynodon dactylon), Surinam grass (Brachiaria decumbens), cocklebur (Xanthium strumarium), corn (Zea mays), large crabgrass (Digitaria sanguinalis), woolly cupgrass (Eriochloa villosa), giant foxtail (Setaria faberii), goosegrass (Eleusine indica), johnsongrass (Sorghum halepense), kochia (Kochia scoparia), lambsquarters (Chenopodium album), morningglory (Ipomoea coccinea), nightshade (eastern black nightshade, Solanum ptycanthum), yellow nutsedge (Cyperus esculentus), pigweed (Amaranthus retroflexus), ragweed (common ragweed, Ambrosia elatior), Russian thistle (Salsola kali), soybean (Glycine max), sunflower (common oilseed sunflower, Helianthus annuus) and velvetleaf (Abutilon theophrasti) were planted into a blend of loam soil and sand and treated preemergence with test compounds formulated in a non-phytotoxic solvent mixture which included a surfactant.\n(§3) At the same time, plants selected from these crop and weed species and also winter barley (Hordeum vulgare), canarygrass (Phalaris minor), chickweed (Stellaria media) and windgrass (Apera spica-venti) were planted in pots containing Redi-Earth® planting medium (Scotts Company, 14111 Scottslawn Road, Marysville, Ohio 43041) comprising spaghnum peat moss, vermiculite, wetting agent and starter nutrients and treated with postemergence applications of some of the test chemicals formulated in the same manner. Plants ranged in height from 2 to 18 cm (1- to 4-leaf stage) for postemergence treatments.\n(§4) Treated plants and controls were maintained in a greenhouse for 13 to 15 days, after which time all treated plants were visually evaluated and compared to controls. Plant response ratings, summarized in Table B, are based on a scale of 0 to 100 where 0 is no effect and 100 is complete control. A dash (-) response means no test result."}, "[5]": {"test_system": "morningglory (Ipomoea coccinea)", "assay": "Test B pre-/postemergence plant response", "from_the_text": "as §2, §3, §4"}, "corn (Zea mays)": {"test_system": "corn (Zea mays)", "assay": "Test B pre-/postemergence plant response", "from_the_text": "as §2, §3, §4"}, "[6]": {"test_system": "blackgrass (Alopecurus myosuroides)", "assay": "Test B pre-/postemergence plant response", "from_the_text": "as §2, §3, §4"}, "[7]": {"test_system": "bermudagrass (Cynodon dactylon)", "assay": "Test B pre-/postemergence plant response", "from_the_text": "as §2, §3, §4"}, "[8]": {"test_system": "Surinam grass (Brachiaria decumbens)", "assay": "Test B pre-/postemergence plant response", "from_the_text": "as §2, §3, §4"}, "[9]": {"test_system": "ragweed (common ragweed, Ambrosia elatior)", "assay": "Test B pre-/postemergence plant response", "from_the_text": "as §2, §3, §4"}, "[10]": {"test_system": "Italian ryegrass (Lolium multiflorum)", "assay": "Test B pre-/postemergence plant response", "from_the_text": "as §2, §3, §4"}, "soybean (Glycine max)": {"test_system": "soybean (Glycine max)", "assay": "Test B pre-/postemergence plant response", "from_the_text": "as §2, §3, §4"}, "[11]": {"settings": "250 g ai/ha, flooded paddy test, visual rating on 0 to 100 scale (0 no effect, 100 complete control) after 13 to 15 days"}, "[12]": {"settings": "Flood (flooded paddy test), 62 g ai/ha, scale 0 to 100, 0 is no effect, 100 is complete control, 13 to 15 days"}, "[13]": {"settings": "250 g ai/ha, Preemergence, 0 to 100 scale"}, "[14]": {"settings": "Postemergence, 125 g ai/ha, visual rating after 13 to 15 days, scale 0 (no effect) to 100 (complete control)"}, "[15]": {"settings": "Preemergence, 31 g ai/ha, scale 0 to 100 (0 no effect, 100 complete control)"}, "[16]": {"settings": "Preemergence, 62 g ai/ha, scale 0 to 100 (0 no effect, 100 complete control)"}, "[17]": {"settings": "Preemergence, 125 g ai/ha, 0 to 100 scale"}, "[18]": {"settings": "Postemergence, 31 g ai/ha, scale 0 to 100 (0 no effect, 100 complete control)"}, "[19]": {"settings": "Postemergence, 62 g ai/ha, scale 0 (no effect) to 100 (complete control), 13 to 15 days"}, "[20]": {"settings": "Postemergence, 250 g ai/ha, scale 0 to 100"}}}
{"compound": "Cc1c(Cl)cccc1-n1c(-c2ccccc2)ncc(C(=O)C2=C(O)CCCC2=O)c1=O", "note": "[Compound 40]", "values": [{"measurement": "Plant response rating, Flood, Barnyardgrass", "setting": "[1]; [11]", "result": 40}, {"measurement": "Plant response rating, Barnyardgrass", "setting": "[1]; [12]", "result": 0}, {"measurement": "Plant response rating, Flood, Sedge, Umbrella", "setting": "[2]; [11]", "result": 85}, {"measurement": "Plant response rating, Sedge, Umbrella", "setting": "[2]; [12]", "result": 70}, {"measurement": "Plant response rating, Flood, Ducksalad", "setting": "[3]; [11]", "result": 90}, {"measurement": "Plant response rating, Ducksalad", "setting": "[3]; [12]", "result": 0}, {"measurement": "Plant response rating, Flood, Rice", "setting": "rice (Oryza sativa); [11]", "result": 25}, {"measurement": "Plant response rating, Rice", "setting": "rice (Oryza sativa); [12]", "result": 0}, {"measurement": "Plant response rating, Cocklebur", "setting": "[4]; 250 g ai/ha, 0 to 100 scale", "result": 100}, {"measurement": "Plant response rating, Cocklebur", "setting": "[4]; 31 g ai/ha, scale 0 to 100 (0 no effect, 100 complete control)", "result": 65}, {"measurement": "Cocklebur plant response rating", "setting": "[4]; 125 g ai/ha, 0 to 100 scale", "result": 85}, {"measurement": "Plant response rating, Morningglory", "setting": "[5]; [13]", "result": 65}, {"measurement": "Plant response rating, Morningglory", "setting": "[5]; [14]", "result": 75}, {"measurement": "Plant response rating, Morningglory", "setting": "[5]; [15]", "result": 0}, {"measurement": "Plant response rating, Morningglory", "setting": "[5]; [16]", "result": 0}, {"measurement": "Morningglory plant response rating", "setting": "[5]; [17]", "result": 0}, {"measurement": "Plant response rating, Corn", "setting": "corn (Zea mays); [13]", "result": 0}, {"measurement": "Plant response rating, Corn", "setting": "corn (Zea mays); [18]", "result": 80}, {"measurement": "Plant response rating, Corn", "setting": "corn (Zea mays); [19]", "result": 80}, {"measurement": "Plant response rating, Corn", "setting": "corn (Zea mays); [14]", "result": 85}, {"measurement": "Corn plant response rating", "setting": "corn (Zea mays); [20]", "result": 90}, {"measurement": "Plant response rating, Corn", "setting": "corn (Zea mays); [15]", "result": 0}, {"measurement": "Plant response rating, Corn", "setting": "corn (Zea mays); [16]", "result": 0}, {"measurement": "Corn plant response rating", "setting": "corn (Zea mays); [17]", "result": 0}, {"measurement": "Plant response rating, Blackgrass", "setting": "[6]; [13]", "result": 5}, {"measurement": "Plant response rating, Blackgrass", "setting": "[6]; [18]", "result": 0}, {"measurement": "Plant response rating, Blackgrass", "setting": "[6]; [19]", "result": 10}, {"measurement": "Plant response rating, Blackgrass", "setting": "[6]; [14]", "result": 10}, {"measurement": "Blackgrass plant response rating", "setting": "[6]; [20]", "result": 15}, {"measurement": "Plant response rating, Blackgrass", "setting": "[6]; [15]", "result": 0}, {"measurement": "Plant response rating, Blackgrass", "setting": "[6]; [16]", "result": 0}, {"measurement": "Blackgrass plant response rating", "setting": "[6]; [17]", "result": 0}, {"measurement": "Plant response rating, Bermudagrass", "setting": "[7]; [13]", "result": 100}, {"measurement": "Plant response rating, Bermudagrass", "setting": "[7]; [19]", "result": 100}, {"measurement": "Plant response rating, Bermudagrass", "setting": "[7]; [14]", "result": 100}, {"measurement": "Bermudagrass plant response rating", "setting": "[7]; [20]", "result": 100}, {"measurement": "Plant response rating, Bermudagrass", "setting": "[7]; [15]", "result": 98}, {"measurement": "Plant response rating, Bermudagrass", "setting": "[7]; [16]", "result": 100}, {"measurement": "Bermudagrass plant response rating", "setting": "[7]; [17]", "result": 100}, {"measurement": "Plant response rating, Surinam Grass", "setting": "[8]; [13]", "result": 90}, {"measurement": "Plant response rating, Surinam Grass", "setting": "[8]; [19]", "result": 95}, {"measurement": "Plant response rating, Surinam Grass", "setting": "[8]; [14]", "result": 98}, {"measurement": "Plant response rating, Surinam Grass", "setting": "[8]; [15]", "result": 40}, {"measurement": "Surinam Grass plant response rating", "setting": "[8]; [17]", "result": 85}, {"measurement": "Plant response rating, Ragweed", "setting": "[9]; [13]", "result": 95}, {"measurement": "Plant response rating, Ragweed", "setting": "[9]; [19]", "result": 98}, {"measurement": "Plant response rating, Ragweed", "setting": "[9]; [14]", "result": 98}, {"measurement": "Plant response rating, Ragweed", "setting": "[9]; [15]", "result": 75}, {"measurement": "Ragweed plant response rating", "setting": "[9]; [17]", "result": 90}, {"measurement": "Plant response rating, Ryegrass, Italian", "setting": "[10]; [13]", "result": 5}, {"measurement": "Plant response rating, Ryegrass, Italian", "setting": "[10]; [19]", "result": 0}, {"measurement": "Plant response rating, Ryegrass, Italian", "setting": "[10]; [14]", "result": 0}, {"measurement": "Plant response rating, Ryegrass, Italian", "setting": "[10]; [15]", "result": 0}, {"measurement": "Ryegrass, Italian plant response rating", "setting": "[10]; [17]", "result": 5}, {"measurement": "Plant response rating, Soybean", "setting": "soybean (Glycine max); [13]", "result": 70}, {"measurement": "Plant response rating, Soybean", "setting": "soybean (Glycine max); [19]", "result": 100}, {"measurement": "Plant response rating, Soybean", "setting": "soybean (Glycine max); [14]", "result": 100}, {"measurement": "Plant response rating, Soybean", "setting": "soybean (Glycine max); [15]", "result": 0}, {"measurement": "Soybean plant response rating", "setting": "soybean (Glycine max); [17]", "result": 20}]}
